Experimental data as given in ChEMBL document CHEMBL3301361, “Experimental in vitro DMPK and physicochemical data on a set of publicly disclosed compounds”.

Assay: physchem
Conditions: octan-1-ol/water, pH 7.4, LogD7.4

SMILES	logD
CN(C)CC(O)COc1ccc(Nc2cc(N(CC#N)c3cc(Cl)ccc3Cl)ncn2)cc1 (configuration not stated)	2.1
Cc1ccc(F)c(Nc2ccnc(Nc3ccc(OCC(O)CN(C)C)cc3)n2)c1 (configuration not stated)	2.1
CC(=O)NC1CC(C)N(C(=O)c2ccccc2)c2ccccc21 (configuration not stated)	2
CC(C)C(NC(=O)Cn1c(-c2cccs2)ncc(NC(=O)OCc2ccccc2)c1=O)C(=O)C(F)(F)F (configuration not stated)	2.02
CC(C)C(NC(=O)Cn1c(-c2cccnc2)ncc(NC(=O)OCc2ccccc2)c1=O)C(=O)C(F)(F)F (configuration not stated)	2.15
CC(C)C(NC(=O)Cn1c(-c2ccccc2)ccc(NC(=O)NCc2ccccn2)c1=O)C(=O)C(F)(F)F (configuration not stated)	2.15
COC(=O)Nc1cnc(-c2ccc(F)cc2)n(CC(=O)NC(C(=O)C(F)(F)F)C(C)C)c1=O (configuration not stated)	1.82
CC(C)C(NC(=O)Cn1c(-c2ccccc2)ccc(NC(=O)OCc2ccccn2)c1=O)C(=O)C(F)(F)F (configuration not stated)	1.91
CC(C)C(NC(=O)Cn1c(-c2ccccc2)ncc(NC(=O)OCc2ccccc2)c1=O)C(=O)C(F)(F)F (configuration not stated)	2.12
CC(C)CC(c1ccccn1)n1[nH]c(=O)c2nc3cc(Cl)ccc3c(O)c2c1=O (configuration not stated)	1.83
O=c1[nH]n(C(c2ccccn2)C2CCCC2)c(=O)c2c(O)c3ccc(Cl)cc3nc12 (configuration not stated)	1.9
O=S(=O)(NCC(c1ccccc1)N1CCCCCC1)c1cccnc1 (configuration not stated)	2.1
Cc1cc2n[nH]c(=O)n2c2cc(-c3ccco3)ccc12	2.07
CCCCCCCN(CCc1ccc(OC(C)(C)C(=O)O)cc1)C(=O)Nc1ccc(F)cc1F	1.93
O=C(OCCN1CCCCC1)c1c[nH]c2ccccc12	2
NC(=O)c1cccc(OC2CCN(Cc3ccccc3)CC2)c1	1.92
Cc1ccc(-n2[nH]c(=O)c3cccnc32)cc1	2.1
Cc1occc(=O)c1OCc1ccc(F)cc1	1.91
Cc1occc(=O)c1OCc1ccccc1	1.87
Nc1[nH]nc2cccc(Cl)c12	1.92
O=CN1CC=C(c2c(F)cc(N3C[C@H](COc4ccon4)OC3=O)cc2F)CC1	2.01
O=c1c(-c2ccc(O)c(O)c2)coc2cc(O)ccc12	1.88
CC(C)C(NC(=O)Cn1c(-c2ccccc2)cc2c(O)nc(O)nc2c1=O)C(=O)C(F)(F)F (configuration not stated)	1.88

SMILES	logD
CC(O)(C(=O)Nc1ccc(S(=O)(=O)c2cccnc2)cc1)C(F)(F)F (configuration not stated)	2.08
N=C(N)Nc1nc2ccccc2o1	1.91
Cc1cc2[nH]c(=O)c(O)cc(=O)c2cc1C	1.99
CC(C)C(NC(=O)Cn1c(-c2ccccc2)cc2c(=O)n(CCN3CCOCC3)c(=O)[nH]c2c1=O)C(=O)C(F)(F)F (configuration not stated)	1.91
CC(C)C(NC(=O)Cn1c(-c2ccccc2)ccc(NC(=O)CN2CCOCC2)c1=O)C(=O)C(F)(F)F (configuration not stated)	2
O=C(NNc1cccc(Cl)c1)c1cccnc1Cl	1.87
COc1cc(O)cc2occ(-c3ccc(O)cc3)c(=O)c12	2
Cc1nc(N)c2nc(O)n(Cc3ccccc3)c2n1	2.04
O=c1c2ccccc2nc2ccccn12	2.1
FC(F)c1nc2ccccc2[nH]1	2.02
Nc1ccc(Cl)c(-c2nc3ncccc3o2)c1	1.97
CC1(C(=O)NC2CCCCC2)CCC(=O)N1Cc1cccs1 (configuration not stated)	2.15
Cc1cc(Nc2ccc(F)cc2)nc(N)n1	2.08
COc1cccc2[nH]ncc12	2.1
Nc1c2c(nc3c(-c4ncccn4)cccc13)CN(C1CCC1)C2=O	1.85
CCCNC(=O)c1nnc2c(-c3ncccn3)c(F)ccc2c1N	2.07
CCCc1c(OCc2ccc(C(=O)O)cc2)ccc(C(C)=O)c1O	2.1
CCOc1cc2nnc(C(N)=O)c(Nc3cccc(Cl)c3F)c2cc1N1CCN(C)CC1	1.99
COc1cc2c(Nc3c(Cl)ccc4c3OCO4)ncnc2cc1OCCCN1CCCCC1	2.05
COc1cc2c(Nc3c(Cl)ccc4c3OCO4)ncnc2cc1OCC1CCN(C)CC1	1.83
Cc1cccc(NC(=O)NCC(c2cccnc2)N2CCOCC2)c1 (configuration not stated)	2
Oc1ncnc2onc(-c3ccc(F)cc3)c12	1.97
O=S1NC(Cc2ccc3ccccc3c2)=NO1 (configuration not stated)	1.85

SMILES	logD
COc1cc(F)ccc1-c1cncc(CNC[C@@H]2CCCO2)n1	2
Fc1cccc(-c2cncc(CNCC3CC3)n2)c1F	1.82
COc1cc(F)ccc1-c1cccc(CNC2CCCC2)n1	2.06
Cc1noc(C)c1CCC1CCN(S(=O)(=O)CC2(N(O)C=O)CCC(F)(F)CC2)CC1	2.1
CCC(c1nc2ccsc2c(=O)n1Cc1ccccc1)N(CCCN)C(=O)c1ccc(C)cc1 (configuration not stated)	1.81
CCC(c1nc2ccsc2c(=O)n1Cc1ccc(OC)cc1)N(CCCN)C(=O)c1ccc(C)cc1 (configuration not stated)	2.15
CCC(c1nc2sccc2c(=O)n1Cc1ccccc1)N(CCCN)C(=O)c1ccc(C)cc1 (configuration not stated)	2.06
Cc1ccc(/C=C(\C#N)C(N)=O)cc1	2.09
C[C@H]1O[C@@H](n2cnc3c(N)nc(OC(C4CC4)C(F)(F)F)nc32)[C@H](O)[C@@H]1O (some centres not stated)	1.83
CN[C@@H](C)C(=O)N[C@H](C(=O)N[C@H]1CCCN(CCc2ccc(C)cc2)C1)C(C)(C)C	2.05
CN1CCCC(CN2CCN(C(=O)Nc3ccc(Cl)c(Cl)c3)CC2)C1 (configuration not stated)	1.98
CCN1CCC[C@@H](CN2CCN(C(=O)Nc3ccc(Cl)c(Cl)c3)CC2)C1	1.94
CCN1CCC[C@H](CN2CCN(C(=O)Nc3ccc(Cl)c(Cl)c3)CC2)C1	1.86
CC(C)N1CCN[C@@H](CN2CCN(C(=O)Nc3ccc(Cl)c(Cl)c3)CC2)C1	1.92
CCN1CCOC(C(=O)N2CCN(C(=O)Nc3ccc(Cl)c(Cl)c3)CC2)C1 (configuration not stated)	2.1
CC(C)Cn1c(=O)n(C)c(=O)c2c(C(=O)N3CC[C@@H](O)C3)c(Cc3cccc4ncccc34)sc21	1.98
c1ccc(C2Cc3ccccc3CN2)cc1 (configuration not stated)	1.9
CCN(CCO)CCCOc1cc2ncnc(Nc3cc(CC(=O)Nc4cccc(F)c4)[nH]n3)c2cc1OC	2.12
CCCSc1ncccc1C(=O)N1CCCC1c1ccncc1 (configuration not stated)	1.95
c1ccc(CC2NCCc3ccccc32)cc1 (configuration not stated)	1.89
Cc1cccc(S(=O)(=O)NC(=O)N2CCC(N3CCC(Oc4ccc(Cl)c(Cl)c4)CC3)CC2)c1	1.84
N#Cc1cccc(S(=O)(=O)NC(=O)N2CCC(N3CCC(Oc4ccc(Cl)c(Cl)c4)CC3)CC2)c1	1.81
COc1cc(N2CCCN(C)CC2)c2[nH]c(C(=O)Nc3ccc(N4CCOCC4)cc3)cc(=O)c2c1	2.1

SMILES	logD
CC(c1cc2ccccc2o1)n1[nH]c(=O)c2[nH]c3cc(Cl)ccc3c(=O)c2c1=O (configuration not stated)	2.1
CCOC(=O)c1coc2ccccc2c1=O	1.81
CCCCNc1nc(N)c2[nH]c(=O)n(Cc3ccc(OCCN(C)C)nc3)c2n1	1.9
N#Cc1ccc2cccc(O)c2n1	1.81
Cn1ccc2c(-c3nc(CS(C)(=O)=O)cc(N4CCOCC4)n3)cccc21	2
CS(=O)(=O)NCC(NC(=O)C1(N)CCN(c2ncnc3[nH]ccc23)CC1)c1ccc(Cl)cc1 (configuration not stated)	2.1
C1=CCC(c2cc3ccccc3o2)CNC1 (configuration not stated)	1.94
Cc1cc(-c2ccc(N3C[C@H](Cn4ccnn4)OC3=O)cc2F)on1	1.99
C[C@@H](NC(=O)[C@H]1CCCCN1)c1ccc(Nc2ncc3cc(-c4ccncc4)ccc3n2)cc1	2.15
Cn1c(N)nc(CCc2ccccc2)cc1=O	2
Cn1c(N)nc(CCc2ccc3cc[nH]c3c2)cc1=O	2.1
CN1C(=O)CC(C)(CCc2cccc(-c3ccccc3)c2)N=C1N (configuration not stated)	2.03
Cc1cc(O)ccc1N1C(=O)c2ccc(O)cc2C1=O	2
CC[S+]([O-])c1ncccc1C1(O)CCN(CC23CC(c4ccccc42)c2ccccc23)CC1 (configuration not stated)	2
CNc1cnc(-c2ccc(F)cc2)n(CC(=O)NC(C(=O)C(F)(F)F)C(C)C)c1=O (configuration not stated)	1.86
COC(=O)N1CCN(c2ccnc(-n3ccnc3)n2)C(CC(=O)NCc2ccc3c(c2)OCO3)C1 (configuration not stated)	1.88
O=C(O)c1[nH]c2cc(Cl)cc(Cl)c2c1/C=C1\CCN(c2ccccc2)C1=O	1.85
C[C@@](O)(C(=O)Nc1ccc(S(=O)(=O)NCCCO)cc1Cl)C(F)(F)F	2.1
CN(C)CC(O)COc1ccc(Nc2cc(N(CCC#N)c3cc(Cl)ccc3Cl)ncn2)cc1 (configuration not stated)	2.1
Cc1ccc(NC(=O)c2ccnc(N3CCOCC3)c2)cc1Nc1ccnc(OCC2CCCN(C)C2)n1 (configuration not stated)	1.9
CC(C)Cn1c(=O)n(C)c(=O)c2c(C(=O)N3C[C@H](O)CO3)c(Cc3c[nH]c4ncccc34)sc21	2.04
O=C1c2ccc(O)cc2C(=O)N1c1cccc(O)c1	2
O=C1c2ccccc2C(=O)N1c1ccc(O)cc1	2

SMILES	logD
CN1Cc2c(N)cccc2[C@@H](c2ccccc2)C1	2.11
NS(=O)(=O)c1ccc2c(c1)C1C=CCC1C(c1cccc3ccccc13)N2 (configuration not stated)	1.9
NC(N)=Nc1cc(Cl)nc(-c2ccccc2)n1	2.16
CCCc1c(OCc2cccc(NC(=O)c3ccccc3C(=O)O)c2)ccc(C(C)=O)c1O	1.9
Cc1cc(=O)[nH]c2ccccc12	1.9
CN1CCN(C(=O)c2cc3cc(F)ccc3[nH]2)CC1	1.97
O=C1c2ccc(O)cc2C(=O)N1c1ccc(O)cc1F	2.1
Cc1ncc(-c2ccnc(Nc3ccc(C(=O)NCCN(C)C)c(F)c3)n2)n1C(C)C	1.96
Cc1ncc(-c2nc(Nc3ccc(C(=O)N4CCCN(C)CC4)cc3)ncc2F)n1C(C)C	2.02
O=C1C(=O)c2cccnc2-c2ccccc21	1.88
Cc1ncc(-c2nc(Nc3ccc(C(=O)NC4CCN(C)CC4)cc3)ncc2F)n1C(C)C	2.13
O=C1/C(=N\O)c2ccccc2N1Cc1ccccc1[N+](=O)[O-]	2.07
NC(=O)c1c(N)sc2c1CCCC2	1.84
COc1cc(OC)cc(-c2cc3cnc(N)nc3nc2N)c1	2.14
CC(C)C(NC(=O)Cn1c(-c2ccccc2)ccc(NC=O)c1=O)C(=O)C(F)(F)F (configuration not stated)	1.84
CN(C)CCCNS(=O)(=O)c1ccc(Nc2nccc(-c3cnc4ccccn34)n2)cc1	1.9
C[C@@](O)(C(=O)Nc1ccc(S(=O)(=O)NCCN2CCOCC2)cc1Cl)C(F)(F)F	2.14
COc1cc(C(=O)NS(=O)(=O)c2ccccc2)ccc1Cn1ccc2ccc(C(=O)NCC3CCCC3)cc21	1.93
Nc1nc(-c2ccccc2)nn1Cc1ccccc1	1.91
CC(O)(C(=O)Nc1ccc(S(=O)(=O)c2ccncc2)cc1)C(F)(F)F (configuration not stated)	2.15
